Here are results for 45 compounds from ChEMBL document CHEMBL5725614, “Histone demethylase inhibitors” (2018).

Molecules are shown by their SMILES.

The first test can be described thus: PHF8 Assay: The ability of test compounds to inhibit the activity of PHF8 was determined in 384-well plate format under the following reaction conditions: 3 nM PHF8, 200 nM H3K9me1-biotin labeled peptide (Anaspec cat #64358), 0.5 μM alpha-ketoglutaric acid in assay buffer of 50 mM HEPES, pH7.3, 0.005% Brij35, 0.5 mM TCEP, 0.2 mg/ml BSA, 50 μM sodium L-ascorbate, and 5 μM ammonium iron(II) sulfate. Reaction product was determined quantitatively by TR-FRET after the addition of detection reagent Phycolink Streptavidin-allophycocyanin (Prozyme) and Europium-anti-unmodified-histone H3 lysine 9/lysine27 (H3K9/K27) antibody (PerkinElmer) in the presence of 5 mM EDTA in LANCE detection buffer (PerkinElmer) at a final concentration of 25 nM and 0.5 nM, respectively.The assay reaction was initiated by the following: 2 μl of the mixture of 600 nM H3K9me1-biotin labeled peptide and 1.5 μM alpha-ketoglutaric acid with 2 μl of 11-point serial diluted inhibitor in 3% DMSO were added to each well of the plate, followed by the addition of 2 μl of 9 nM PHF8 to initiate the reaction. The reaction mixture was incubated at room temperature for 15 minutes, and terminated by the addition of 6 μl of 5 mM EDTA in LANCE detection buffer containing 50 nM Phycolink Streptavidin-allophycocyanin and 1 nM Europium-anti-unmodified H3K9/K27 antibody. Plates were read by EnVision Multilabel Reader in TR-FRET mode (excitation at 320 nm, emission at 615 nm and 665 nm) after 1 hour incubation at room temperature. A ratio was calculated (665/615) for each well and fitted to determine inhibition constant (IC50).
`FC(F)(F)COc1ccccc1CCn1cnc(-c2cc(-c3c[nH]nn3)ccn2)c1`: the IC50 entry was “in the range around 550 nM”.

In the case of `FC(F)(F)c1cccc(Cn2cnc(-c3cc(-c4c[nH]nn4)ccn3)c2)c1Cl`, the IC50 entry was “in the range around 550 nM”.

For `Clc1cc(Cl)cc(-n2cnc(-c3cc4[nH]nnc4cn3)c2)c1`, the IC50 entry was “in the range around 5500 nM”.

For the compound `Clc1cccc(Cn2cnc(-c3cc4[nH]nnc4cn3)c2)c1`, the IC50 result is “in the range around 5500 nM”.

With `c1nc(-c2cn(CC3CC3)cn2)cc2[nH]nnc12`, the IC50 result was “in the range around 5500 nM”.

For the compound `Clc1ccc(Cn2cnc(-c3cc4[nH]nnc4cn3)c2)cc1`, the IC50 result is “in the range around 5500 nM”.

On to `Fc1c(Cn2cnc(-c3cc(-c4c[nH]nn4)ccn3)c2)cccc1OC(F)(F)F`, for which the IC50 entry was “in the range around 5500 nM”.

As for `CCOc1cc(-c2c(-c3cc(-c4c[nH]nn4)ccn3)ncn2C)ccc1F`, the IC50 entry is “in the range around 5500 nM”.

Regarding `CC(C)(Cn1cnc(-c2cc(-c3c[nH]nn3)ccn2)c1)c1ccccc1Cl`, the IC50 result is “in the range around 550 nM”.

Turning to `c1ccc(OCC2CC2)c(CCn2cnc(-c3cc(-c4c[nH]nn4)ccn3)c2)c1`, the concentration for half-maximal inhibition (IC50) entry is “in the range around 550 nM”.

For `Fc1[nH]nnc1-c1ccnc(-c2cn(Cc3cccc(Cl)c3Cl)cn2)c1`, the IC50 entry is “in the range around 550 nM”.

Turning to `Clc1[nH]nnc1-c1ccnc(-c2cn(CCc3cccc4ccccc34)cn2)c1`, the IC50 result was “in the range around 5500 nM”.

Consider `Clc1cccc(Cn2cnc(-c3cc(-c4nn[nH]c4I)ccn3)c2)c1Cl`, for which the IC50 result was “in the range around 550 nM”.

Take `Clc1ccccc1Cn1cnc(-c2cc3[nH]nnc3cn2)c1`: the IC50 entry was “in the range around 5500 nM”.

For the compound `Cn1cnc(-c2cc(-c3c[nH]nn3)ccn2)c1-c1ccc(F)cc1OCC1CC1`, the half-maximal inhibitory concentration (IC50) result was “in the range around 5500 nM”.

Consider `c1ccc(Oc2ccccc2CCn2cnc(-c3cc(-c4c[nH]nn4)ccn3)c2)cc1`, for which the IC50 result was “in the range around 5500 nM”.

On to `FC(F)(F)c1ccccc1CCn1cnc(-c2cc(-c3c[nH]nn3)ccn2)c1`, for which the concentration for half-maximal inhibition (IC50) entry was “in the range around 550 nM”.

As for `Fc1[nH]nnc1-c1ccnc(-c2cn(CCc3cccc4ccccc34)cn2)c1`, the 50% inhibitory concentration (IC50) entry was “in the range around 550 nM”.

As to `COc1ccccc1CCn1cnc(-c2cc(-c3c[nH]nn3)ccn2)c1`, the IC50 entry is “in the range around 550 nM”.

For the compound `c1ccc2c(CCn3cnc(-c4cc(-c5c[nH]nn5)ccn4)c3)cccc2c1`, the IC50 result is “in the range around 550 nM”.

On to `CCOc1ccccc1CCn1cnc(-c2cc(-c3c[nH]nn3)ccn2)c1`, for which the IC50 result was “in the range around 550 nM”.

For `Clc1ccccc1-n1cnc(-c2cc3[nH]nnc3cn2)c1`, the IC50 entry is “in the range around 5500 nM”.

Take `Cn1cnc(-c2cc(-c3c[nH]nn3)ccn2)c1-c1ccc(F)cc1`: the concentration for half-maximal inhibition (IC50) entry was “in the range around 550 nM”.

On to `FC(F)(F)Oc1ccccc1CCn1cnc(-c2cc(-c3c[nH]nn3)ccn2)c1`, for which the IC50 entry was “in the range around 550 nM”.

As for `Cn1cnc(-c2cc3[nH]nnc3cn2)c1-c1ccc(F)cc1`, the IC50 result is “in the range around 5500 nM”.

Turning to `COc1cc(-c2c(-c3cc(-c4c[nH]nn4)ccn3)ncn2C)ccc1F`, the IC50 entry is “in the range around 550 nM”.

For the compound `c1ccc2c(c1)CCCC2Cn1cnc(-c2cc(-c3c[nH]nn3)ccn2)c1` (stereo not drawn), the IC50 entry was “in the range around 550 nM”.

Turning to `Cc1cccc(Cn2cnc(-c3cc(-c4c[nH]nn4)ccn3)c2)c1F`, the IC50 entry is “in the range around 550 nM”.

For the compound `c1ccc(COc2ccccc2CCn2cnc(-c3cc(-c4c[nH]nn4)ccn3)c2)cc1`, the IC50 entry was “in the range around 5500 nM”.

Consider `Clc1ccccc1Cn1cnc(-c2cc(-c3cn[nH]n3)ccn2)c1Br`, for which the IC50 entry is “in the range around 550 nM”.

Regarding `Clc1ccc(Cn2cnc(-c3cc4[nH]nnc4cn3)c2)cc1Cl`, the IC50 result is “in the range around 5500 nM”.

With `CC(Cc1ccccc1)n1cnc(-c2cc(-c3c[nH]nn3)ccn2)c1` (stereo not drawn), the IC50 result is “in the range around 5500 nM”.

In the case of `N#Cc1[nH]nnc1-c1ccnc(-c2cn(CC3CCCc4ccccc43)cn2)c1` (stereo not drawn), the IC50 result is “in the range around 550 nM”.

On to `Clc1ccccc1Cn1cnc(-c2cc(-c3c[nH]nn3)ccn2)c1`, for which the IC50 result was “in the range around 550 nM”.

`c1ccc(-c2ccccc2CCn2cnc(-c3cc(-c4c[nH]nn4)ccn3)c2)cc1`: the IC50 result is “in the range around 5500 nM”.

For `N#Cc1[nH]nnc1-c1ccnc(-c2cn(Cc3cccc(Cl)c3Cl)cn2)c1`, the IC50 result is “in the range around 5500 nM”.

With `Clc1cccc(-n2cnc(-c3cc4[nH]nnc4cn3)c2)c1`, the IC50 entry was “in the range around 5500 nM”.

Turning to `CC(c1ccccc1)n1cnc(-c2cc(-c3c[nH]nn3)ccn2)c1` (stereo not drawn), the IC50 result is “in the range around 550 nM”.

Take `Cn1cnc(-c2cc(-c3nn[nH]c3F)ccn2)c1-c1ccc(F)cc1OCC1CC1`: the IC50 result was “in the range around 5500 nM”.

Consider `Clc1cccc(Cn2cnc(-c3cc(-c4c[nH]nn4)ccn3)c2)c1Cl`, for which the IC50 result was “in the range around 550 nM”.

`c1ccc(Cn2cnc(-c3cc4[nH]nnc4cn3)c2)cc1`: the IC50 entry is “in the range around 550 nM”.

For the compound `Clc1ccc(-n2cnc(-c3cc4[nH]nnc4cn3)c2)cc1`, the IC50 result was “in the range around 5500 nM”.

`N#Cc1[nH]nnc1-c1ccnc(-c2cn(CCc3cccc4ccccc34)cn2)c1`: the IC50 result was “in the range around 550 nM”.

Take `COc1cccc(Cn2cnc(-c3cc(-c4c[nH]nn4)ccn3)c2)c1F`: the IC50 entry was “in the range around 550 nM”.

For the compound `N#Cc1[nH]nnc1-c1ccnc(-c2cn(Cc3ccccc3Cl)cn2)c1`, the IC50 result was “in the range around 5500 nM”.

A short description of another test: FBXL11 Assay: The ability of test compounds to inhibit the activity of FBXL11 was determined in 384-well plate format under the following reaction conditions: 0.15 nM FBXL11, 30 nM H3K36me2-biotin labeled peptide (Anaspec cat #64442), 0.2 μM alpha-ketoglutaric acid in assay buffer of 50 mM HEPES, pH7.3, 0.005% Brij35, 0.5 mM TCEP, 0.2 mg/ml BSA, 50 μM sodium L-ascorbate, 5 μM ammonium iron(II) sulfate. Reaction product is determined quantitatively by AlphaScreen detection after the addition of detection reagents anti-H3K36me1 antibody, AlphaScreen® Streptavidin-coated Donor beads, and AlphaScreen® Protein A Acceptor beads in 50 mM HEPES, pH7.3, 10 mM NaCl, 0.005% Brij35, 5 mM EDTA, 2 mg/ml BSA to final 10 μg/ml beads.The assay reaction was initiated by the following: 3 μl of the mixture of 90 nM H3K36me2-biotin labeled peptide and 0.6 μM alpha-ketoglutaric acid with 3 μl of 11-point serial diluted inhibitor in 3% DMSO are added to each well of 384 well Proxiplate (Perkin Elmer), followed by the addition of 3 μl of 0.45 nM FBXL11 to initiate the reaction. The reaction mixture is incubated at room temperature for 1 hour, and terminated by the addition of 3 μl of appropriate dilution of anti H3K36me1 antibody in 50 mM HEPES, pH7.3, 10 mM NaCl, 0.005% Brij35, 5 mM EDTA, 2 mg/ml BSA. Plates will then incubated at room temperature for 40 minutes, followed by addition of 3 ul of 50 μg/ml AlphaScreen® Streptavidin-coated Donor beads and AlphaScreen® Protein A Acceptor beads in 50 mM HEPES, pH7.3, 10 mM NaCl, 0.005% Brij35, 5 mM EDTA, 2 mg/ml BSA. Plates will then be read by EnVision Multilabel Reader in AlphaScreen mode after minimum 2 hour incubation at room temperature. The AlphaScreen signal for each well is used to determine inhibition constant (IC50). Background: Bead proximity is the source of the signal in Alpha formats.
With `CCOc1cc(-c2c(-c3cc(-c4c[nH]nn4)ccn3)ncn2C)ccc1F`, the 50% inhibitory concentration (IC50) result is “in the range around 550 nM”.

In the case of `Clc1ccccc1Cn1cnc(-c2cc(-c3c[nH]nn3)ccn2)c1`, the IC50 entry is “in the range around 550 nM”.

For `Clc1cccc(-n2cnc(-c3cc4[nH]nnc4cn3)c2)c1`, the IC50 entry was “in the range around 550 nM”.

One may read the IC50 as the concentration that inhibits the measured activity by half.
